Measured values taken from patent US5792780A, “Azole compounds, their production and use” (Takeda Chemical Industries, Ltd., priority 1993, dated 1998).

Tests used:
Candida albicans TA = assay: protective effect against experimental infection in mice (survival rate 7 days after infection); type: in vivo, Crj:CDF1 mice; conditions: po, 168 h, Table 7, P.O. once immediately after infection, 0.2% CMC, survival 7 days after infection
Experimental: (§1) Test Method: Five-week-old Crj:CDF1 mice were inoculated with the minimum lethal dose of Candida albicans TA intravenously. The test compound was suspended in a solution of 0.2% or 0.5% sodium carboxymethylcellulose (CMC). The suspension was administered orally once immediately after infection. The activity was expressed in terms of ED50 values calculated by the Reed and Muench method from the survival rate 7 days after infection.
as §1, with “of” for “of 0.2% or”

[1] = test system: Aspergillus niger IFO 4066; assay: growth inhibition zone, paper disc agar diffusion; type: cell-based; conditions: IFO4066, 48 h, Medium A, 1000 μg/ml, 28° C., two days, read-out: Diameter of growth inhibition zone
Experimental: (§2) Evaluation of the antifungal activities of the compound of the present invention was conducted by the following method: a sheet of filter paper disc (manufactured by Toyo Seisakusho, 8 mm in diameter) soaked in a 1000 μg/ml solution of a compound of the present invention in methanol was placed on an agar plate containing various fungi, which was incubated at 28° C. for two days, and the diameter of the growth inhibition zone around the filter paper disc was measured. The following culture media were used:
(§3) A: yeast nitrogen base agar medium (pH 7.0)
(§4) B: peptone-yeast extract-glucose agar medium (pH 7.0)

[2] = test system: Cryptococcus neoformans IFO 0410; assay: growth inhibition zone, paper disc agar diffusion; type: cell-based; conditions: IFO0410, 48 h, Medium A, 1000 μg/ml, 28° C., two days, read-out: Diameter of growth inhibition zone
Experimental: as §2, §3, §4

[3] = test system: Candida albicans IFO 0583; assay: growth inhibition zone, paper disc agar diffusion; type: cell-based; conditions: IFO0583, 48 h, Table 5, Medium A, 1000 μg/ml, 28° C., two days, read-out: Diameter of growth inhibition zone
Experimental: as §2, §3, §4

[4] = test system: Trichophyton rubrum IFO 5467; assay: growth inhibition zone, paper disc agar diffusion; type: cell-based; conditions: IFO5467, 48 h, Medium B, 1000 μg/ml, 28° C., two days, read-out: Diameter of growth inhibition zone
Experimental: as §2, §3, §4

[5] = test system: Microsporum gypseum IFO 6076; assay: growth inhibition zone, paper disc agar diffusion; type: cell-based; conditions: Nannizzia gypsea, IFO6076, 48 h, Medium B, 1000 μg/ml, 28° C., two days, read-out: Diameter of growth inhibition zone
Experimental: as §2, §3, §4

Candida utilis IFO 0619 = assay: growth inhibition zone, paper disc agar diffusion; type: cell-based; conditions: Williopsis jadinii, IFO0619, 48 h, Medium A, 1000 μg/ml, 28° C., two days, read-out: Diameter of growth inhibition zone
Experimental: as §2, §3, §4

[6] = test system: Trichophyton mentagrophytes IFO 7522; assay: growth inhibition zone, paper disc agar diffusion; type: cell-based; conditions: IFO7522, 48 h, Medium B, 1000 μg/ml, 28° C., two days, read-out: Diameter of growth inhibition zone
Experimental: as §2, §3, §4

[7] = test system: Aspergillus fumigatus IFO 6344; assay: growth inhibition zone, paper disc agar diffusion; type: cell-based; conditions: IFO6344, 48 h, Medium A, 1000 μg/ml, 28° C., two days, read-out: Diameter of growth inhibition zone
Experimental: as §2, §3, §4

Row | Structure (SMILES) | ED50 (Candida albicans TA) [mg/kg] | zone of inhibition at 1000 µg/mL [1] [mm] | zone of inhibition at 1000 µg/mL [2] [mm] | zone of inhibition at 1000 µg/mL [3] [mm] | zone of inhibition at 1000 µg/mL [4] [mm] | zone of inhibition at 1000 µg/mL [5] [mm] | zone of inhibition at 1000 µg/mL (Candida utilis IFO 0619) [mm] | zone of inhibition at 1000 µg/mL [6] [mm] | zone of inhibition at 1000 µg/mL [7] [mm]
1 | C[C@@H](N1CCN(c2ccc(OC(F)(F)F)cc2)C1=O)[C@](O)(Cn1cncn1)c1ccc(F)cc1F [Compound 1, 1-[(1R,2R)-2-(2,4-difluorophenyl)-2-hydroxy-1-methyl-3-(1H-1,2,4-triazol-1-yl)propyl]-3-(4-trifluoromethoxyphenyl)-2-imidazolidinone] | 1.4 | 24 | 27 | 36 | 47 | 49 | 25 | 48 | 31
2 | C[C@@H](N1CCN(c2ccc(F)cc2F)C1=O)[C@](O)(Cn1cncn1)c1ccc(F)cc1F [Compound 2, 1-[(1R,2R)-2-(2,4-difluorophenyl)-2-hydroxy-1-methyl-3-(1H-1,2,4-triazol-1-yl)propyl]-3-(2,4-difluorophenyl)-2-imidazolidinone] |  | 27 | 31 | 45 | 50 | 41 | 29 | 40 | 30
3 | C[C@@H](N1CCN(c2ccc(C(F)(F)F)cc2)C1=O)[C@](O)(Cn1cncn1)c1ccc(F)cc1F [Compound 4, 1-[(1R,2R)-2-(2,4-difluorophenyl)-2-hydroxy-1-methyl-3-(1H-1,2,4-triazol-1-yl)propyl]-3-(4-trifluoromethylphenyl)-2-imidazolidinone] | 0.65 | 26 | 29 | 41 | 43 | 42 | 31 | 39 | 34
